Tests used:
ExtHD = molecular target: T1, ExtHD (Gallus gallus, UniProt Q05917); experiment: ITC, titration with POPG LUVs; format: binding; conditions: read-out: Kd^apparent
T1 construct: gene EN2; homeodomain plus 17-residue basic N-terminal extension (183-259); E. coli SE1, His6-Cherry fusion removed by PreScission, GPAS left at N-terminus (GPCAS with biotin-PEG2-maleimide for biotinylated form)
T1 sequence (Q05917 183-259): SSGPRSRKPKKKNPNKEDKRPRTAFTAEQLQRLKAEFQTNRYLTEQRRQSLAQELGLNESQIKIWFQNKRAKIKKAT
Source text: ITC, titration with POPG LUVs on ExtHD

HD = molecular target: T2, HD (Gallus gallus, UniProt Q05917); experiment: ITC, titration with POPG LUVs; format: binding; conditions: read-out: Kd^apparent
T2 construct: gene EN2; homeodomain alone (200-259); E. coli SE1, His6-Cherry fusion removed by PreScission, GPAS left at N-terminus
T2 sequence (Q05917 200-259): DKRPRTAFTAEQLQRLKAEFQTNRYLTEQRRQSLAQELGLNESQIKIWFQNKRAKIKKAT
Source text: ITC, titration with POPG LUVs on HD

Kd (ExtHD): 6.8 ± 2.3 µM
Kd (HD): 7.5 ± 2.5 µM
Compound: CCCCCCCC/C=C\CCCCCCCC(=O)O[C@H](COC(=O)CCCCCCCCCCCCCCC)COP(=O)(O)OCC(O)CO (mixture of isomers) [POPG, 1-palmitoyl-2-oleoyl-sn-glycero-3-phospho-(1’-rac-glycerol)]
